# Structures can show the parent of a compound that is named as a salt.
# Tests used:
# [1] = system: Mnk2 (Mnk2a or Mnk2b) or Mnk1; settings: cell culture cells transfected with Mnk2 (Mnk2a or Mnk2b) or Mnk1; cited from earlier work
# human Mnk2a = biological target: T1, human Mnk2a (Homo sapiens, UniProt Q9HBH9); test: Mnk2a in vitro kinase assay (indirect fluorescence polarization); assay type: biochemical; settings: assay of example 2a; 20 μM ATP, 2.5 nM pre-activated Mnk2a; read-out: MNK2 Inhibition (IC50)
# T1 construct: the open reading frames of human Mnk1 and Mnk2a were amplified from cDNA; made in house; host or cells: E. coli BL21
# Protocol: Assay principle: Inhibitory potency of compounds against Mnk1, Mnk2a and other kinases was assessed with assays based on a format known to those skilled in the art as the indirect (competitive) fluorescence polarization. The assay detection system comprises a small fluorophore-labeled phospho-peptide (termed ligand) bound to a phospho-specific antibody. The product generated by the kinase reaction competes with the ligand for antibody binding. Based on the larger molecular volume of the bound ligand, which results in a lower rotation rate in solution, its emitted light has a higher degree of polarization than the one from the free ligand.
# As a source of enzyme, human Mnk1 and human Mnk2a were expressed as GST fusion proteins in E. coli, purified to >80% homogeneity by glutathione affinity chromatography and activated in vitro with pre-activated ERK2. In brief, the open reading frames of human Mnk1 and Mnk2a were amplified from cDNA using the forward/reverse primer pairs
# (utilized restriction sites underlined), respectively, and cloned into the BamHI and SalI sites of the vector pGEX-4T1 (Amersham, Sweden, cat. no. 27-4580-01). These constructs allow prokaryotic expression of Mnk1 or Mnk2a as fusion protein with a N-terminal glutathione S-transferase (GST) tag, referred to as GST-Mnk1 or GST-Mnk2a. The following expression and purification procedure was identical for GST-Mnk1 and GST-Mnk2a, referring in general to GST-Mnk, when not distinguishing between the two isoforms. Expression of GST-Mnk was in E. coli BL21 (Merck Biosciences, Germany, cat. no. 69449). Cells were grown in LB-Bouillon (Merck, Germany, cat. no. 1.10285) supplemented with 100 μg/ml ampicillin (Sigma, Germany, cat. no. A9518) at 37° C. When the culture had reached a density corresponding to an A600 of 0.8, an equal volume of ice cold LB/ampicillin was added, the culture transferred to 25° C. and induced for 4 h with 1 mM isopropyl thiogalactoside (IPTG, Roth, Germany, cat. no. 2316.4). Cells harvested by centrifugation were resuspended in 10 ml lysis buffer (50 mM tris(hydroxymethyl)aminomethane hydrochloride (Tris/HCl, Sigma, Germany, cat. no. T5941) pH 7.5, 300 mM sodium chloride (NaCl, Sigma, Germany, cat. no. S7653), 5% (w/v) glycerol (Sigma, Germany, cat. no. G5516), 3 mM DTT dithiotreitol (DTT, Sigma, Germany, cat. no. D9779)) per gram wet weight cell pellet. Lysates were prepared by disruption of cells with a sonifier and subsequent clearing by centrifugation at 38000 g for 45 min at 4° C.
# The lysate was applied to a GSTPrep FF 16/10 column (Amersham, Sweden, cat. no. 17-5234-01) equilibrated with lysis buffer. Removal of unbound material was with 3 column volumes (CV) lysis buffer. Elution was with 2 CV of elution buffer (50 mM Tris/HCl pH 7.5, 300 mM NaCl, 5% (w/v) glycerol, 20 mM glutathione (Sigma, Germany, cat. no. G4251)). Peak fractions were pooled and the protein transferred into storage buffer (50 mM Tris/HCl pH 7.5, 200 mM NaCl, 0.1 mM ethylene glycol-bis(2-aminoethylether)-N,N,N′,N′-tetraacetic acid (EGTA, Aldrich, Germany, cat. no. 23, 453-2), 1 mM DTT, 10% (w/v) glycerol, 0.5 M sucrose (Sigma, Germany, cat. no. S0389) by gel filtration on a PD10 desalting column (Amersham, Sweden, cat. no. 17-0851-01). Aliquots were shock frozen in liquid nitrogen and stored at −80° C.
# Activation of Mnk1 and Mnk2a was at a concentration of 2.5 μM of either purified GST-Mnk1 or GST-Mnk2a by incubation with 150 nM pre-activated NHis-ERK2 (see ERK2 assay for preparation) and 50 μM adenosine triphosphate (ATP, Sigma, cat. no. A2699) in a buffer comprising 20 mM N-(2-hydroxyethyl)piperazine-N′-(2-ethanesulfonic acid) (HEPES, Fluka, Germany, cat. no 54459)/potassium hydroxide (KOH, Roth, Germany, cat. no 6751.1) pH 7.4, 10 mM magnesium chloride (MgCl2, Sigma, Germany, cat. no. M2670), 0.25 mM DTT, 0.05% (w/v) polyoxyethylene 20 stearylether (Brij 78, Sigma, Germany, cat. no. P4019) (HMDB buffer) for 45 min at 30° C. […]
# T1 sequence (Q9HBH9 whole entry): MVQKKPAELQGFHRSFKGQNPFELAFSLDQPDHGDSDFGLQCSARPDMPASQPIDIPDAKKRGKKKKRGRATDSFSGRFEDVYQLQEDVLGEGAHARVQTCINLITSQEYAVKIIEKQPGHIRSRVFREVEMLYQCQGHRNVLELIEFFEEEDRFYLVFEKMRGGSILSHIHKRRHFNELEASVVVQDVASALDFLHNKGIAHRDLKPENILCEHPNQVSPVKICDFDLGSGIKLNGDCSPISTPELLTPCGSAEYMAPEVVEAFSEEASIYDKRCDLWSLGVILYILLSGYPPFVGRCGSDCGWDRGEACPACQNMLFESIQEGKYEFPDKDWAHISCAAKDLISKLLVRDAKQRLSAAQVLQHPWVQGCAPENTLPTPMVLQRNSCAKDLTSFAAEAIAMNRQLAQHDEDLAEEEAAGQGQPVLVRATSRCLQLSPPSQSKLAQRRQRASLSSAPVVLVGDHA
SMILES,reduction of phosphorylated eIF4E [1],IC50 (human Mnk2a) [nM]
Nc1ncnc2n[nH]c(Nc3ccc(F)cc3)c12 [CGP57380],strong reduction,–
"Cc1c(Br)sc2ncnc(Nc3ccc(F)cc3OC(C)CN)c12 (stereo not shown) [Example 8, [2-(2-Amino-1-methyl-ethoxy)-4-fluoro-phenyl]-(6-bromo-5-methyl-thieno[2,3-d]pyrimidin-4-yl)-amine]",–,11
"Cc1c(Br)sc2ncnc(Nc3ccc(F)cc3OC(C)CNS(C)(=O)=O)c12 (stereo not shown) [Example 10, N-{2-[2-(6-Bromo-5-methyl-thieno[2,3-d]pyrimidin-4-ylamino)-5-fluoro-phenoxy]-propyl}-methanesulfonamide]",–,8
"Cc1c(Cl)sc2ncnc(Nc3ccc(F)cc3OC(C)CN)c12 (stereo not shown) [Example 13, [2-(2-Amino-1-methyl-ethoxy)-4-fluoro-phenyl]-(6-chloro-5-methyl-thieno[2,3-d]pyrimidin-4-yl)-amine trifluoroacetate]",–,10
"Cc1c(Cl)sc2ncnc(Nc3ccc(F)cc3OC(C)CNS(C)(=O)=O)c12 (stereo not shown) [Example 15, N-{2-[2-(6-Chloro-5-methyl-thieno[2,3-d]pyrimidin-4-ylamino)-5-fluoro-phenoxy]-propyl}-methanesulfonamide]",–,9
"CCOc1cc(C(N)=O)ccc1Nc1ncnc2sc(Cl)c(C)c12 [Example 16.2, 4-(6-Chloro-5-methyl-thieno[2,3-d]pyrimidin-4-ylamino)-3-ethoxy-benzamide]",–,16
"Cc1c(Br)sc2ncnc(Nc3ccc(F)cc3OC(C)C)c12 [Example 18, (6-Bromo-5-methyl-thieno[2,3-d]pyrimidin-4-yl)-(4-fluoro-2-isopropoxy-phenyl)-amine]",–,58

# Reference: US20130065914A1, “HALOGEN OR CYANO SUBSTITUTED THIENO [2,3-D]PYRIMIDINES HAVING MNK1/MNK2 INHIBITING ACTIVITY FOR PHARMACEUTICAL COMPOSITIONS” (BOEHRINGER INGELHEIM INTERNATIONAL GMBH, priority 2010, published 2013)
